This note sets out measurements from ChEMBL document CHEMBL3864153, “Metabolism-based structure optimization: Discovery of a potent and orally available tyrosine kinase ALK inhibitor bearing the tetracyclic benzo[b]carbazolone core” (Bioorg Med Chem Lett, 2016).

The source made the active and inactive calls.

Data set [1] in a line: Drug level in rat liver microsomes treated with 9-Ethyl-8-(4-((4-hydroxytetrahydro-2H-pyran-4-yl)methyl)piperazin-1-yl)-6,6-dimethyl-11-oxo-6,11-dihydro-5H-benzo[b]carbazole-3-carbonitrile after 3 hrs. Format: ADME. For orientation: Liver microsomes are vesicles of endoplasmic reticulum, rich in cytochrome P450 enzymes.
Data set [2] concerns the target T1, ALK tyrosine kinase receptor (Homo sapiens, UniProt Q9UM73). As to the kind of experiment: Inhibition of recombinant wild type ALK (unknown origin) using poly (Glu,Tyr)4:1 as substrate after 60 mins by ELISA.
Target sequence in this assay (Q9UM73 whole entry): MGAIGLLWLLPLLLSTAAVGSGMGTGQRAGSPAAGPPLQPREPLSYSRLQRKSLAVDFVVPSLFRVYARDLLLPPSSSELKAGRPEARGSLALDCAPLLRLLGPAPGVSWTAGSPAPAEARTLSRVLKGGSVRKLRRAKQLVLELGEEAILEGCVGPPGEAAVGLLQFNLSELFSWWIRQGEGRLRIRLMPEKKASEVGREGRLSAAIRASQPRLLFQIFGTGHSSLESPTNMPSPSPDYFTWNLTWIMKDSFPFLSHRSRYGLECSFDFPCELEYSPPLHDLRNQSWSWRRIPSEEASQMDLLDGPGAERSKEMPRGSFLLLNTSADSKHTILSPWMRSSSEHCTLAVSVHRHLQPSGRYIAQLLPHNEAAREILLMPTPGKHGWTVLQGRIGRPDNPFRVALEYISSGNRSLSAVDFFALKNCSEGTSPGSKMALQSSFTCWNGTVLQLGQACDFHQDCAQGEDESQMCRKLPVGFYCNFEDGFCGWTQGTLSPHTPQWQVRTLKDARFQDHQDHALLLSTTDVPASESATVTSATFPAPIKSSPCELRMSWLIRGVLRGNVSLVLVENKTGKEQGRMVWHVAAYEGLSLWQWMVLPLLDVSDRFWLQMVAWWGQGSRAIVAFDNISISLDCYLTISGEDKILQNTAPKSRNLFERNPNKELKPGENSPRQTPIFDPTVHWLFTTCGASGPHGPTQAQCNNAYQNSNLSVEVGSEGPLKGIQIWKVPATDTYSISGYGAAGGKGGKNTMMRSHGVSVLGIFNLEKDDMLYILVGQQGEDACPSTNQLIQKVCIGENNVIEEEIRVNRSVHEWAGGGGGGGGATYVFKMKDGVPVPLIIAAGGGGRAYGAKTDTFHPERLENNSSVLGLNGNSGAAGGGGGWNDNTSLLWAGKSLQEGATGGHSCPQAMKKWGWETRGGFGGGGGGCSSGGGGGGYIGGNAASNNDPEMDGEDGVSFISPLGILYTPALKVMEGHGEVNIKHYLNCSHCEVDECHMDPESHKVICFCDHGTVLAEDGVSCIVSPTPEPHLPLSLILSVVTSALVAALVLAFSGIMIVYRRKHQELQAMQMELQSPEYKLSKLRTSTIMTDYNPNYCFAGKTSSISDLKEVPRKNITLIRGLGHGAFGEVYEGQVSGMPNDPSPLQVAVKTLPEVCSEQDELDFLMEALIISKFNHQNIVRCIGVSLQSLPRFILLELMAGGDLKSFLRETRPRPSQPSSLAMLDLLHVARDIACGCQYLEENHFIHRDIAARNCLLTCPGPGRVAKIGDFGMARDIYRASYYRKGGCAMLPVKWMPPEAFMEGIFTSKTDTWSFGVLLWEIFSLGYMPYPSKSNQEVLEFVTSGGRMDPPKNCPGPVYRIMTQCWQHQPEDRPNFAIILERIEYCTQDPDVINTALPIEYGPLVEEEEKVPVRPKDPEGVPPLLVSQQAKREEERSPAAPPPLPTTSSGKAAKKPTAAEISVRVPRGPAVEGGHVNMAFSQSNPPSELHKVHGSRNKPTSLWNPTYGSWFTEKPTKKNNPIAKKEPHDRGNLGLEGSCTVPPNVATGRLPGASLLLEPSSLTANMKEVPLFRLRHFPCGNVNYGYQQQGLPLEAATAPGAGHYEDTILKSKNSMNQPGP
Data set [3] in a line: Antiproliferative activity against ALK constitutively activated human NCI-H3122 cells at 50 nM after 72 hrs by SRB or CCK8 assay relative to control. The conditions noted are these: NCI-H3122, 72 h. Format: functional. (Tetrazolium assays rely on reduction of a dye to a coloured formazan, in cell work by metabolically active cells.)
Data set [4] concerns the target T1, ALK tyrosine kinase receptor. Nature of the data set: Inhibition of ALK in human NCI-H3122 cells assessed as decrease in Akt phosphorylation after 1 hr by Western blot method. The data set is classed as cell-based.
Target sequence in this assay (Q9UM73 19-1620 limits assumed): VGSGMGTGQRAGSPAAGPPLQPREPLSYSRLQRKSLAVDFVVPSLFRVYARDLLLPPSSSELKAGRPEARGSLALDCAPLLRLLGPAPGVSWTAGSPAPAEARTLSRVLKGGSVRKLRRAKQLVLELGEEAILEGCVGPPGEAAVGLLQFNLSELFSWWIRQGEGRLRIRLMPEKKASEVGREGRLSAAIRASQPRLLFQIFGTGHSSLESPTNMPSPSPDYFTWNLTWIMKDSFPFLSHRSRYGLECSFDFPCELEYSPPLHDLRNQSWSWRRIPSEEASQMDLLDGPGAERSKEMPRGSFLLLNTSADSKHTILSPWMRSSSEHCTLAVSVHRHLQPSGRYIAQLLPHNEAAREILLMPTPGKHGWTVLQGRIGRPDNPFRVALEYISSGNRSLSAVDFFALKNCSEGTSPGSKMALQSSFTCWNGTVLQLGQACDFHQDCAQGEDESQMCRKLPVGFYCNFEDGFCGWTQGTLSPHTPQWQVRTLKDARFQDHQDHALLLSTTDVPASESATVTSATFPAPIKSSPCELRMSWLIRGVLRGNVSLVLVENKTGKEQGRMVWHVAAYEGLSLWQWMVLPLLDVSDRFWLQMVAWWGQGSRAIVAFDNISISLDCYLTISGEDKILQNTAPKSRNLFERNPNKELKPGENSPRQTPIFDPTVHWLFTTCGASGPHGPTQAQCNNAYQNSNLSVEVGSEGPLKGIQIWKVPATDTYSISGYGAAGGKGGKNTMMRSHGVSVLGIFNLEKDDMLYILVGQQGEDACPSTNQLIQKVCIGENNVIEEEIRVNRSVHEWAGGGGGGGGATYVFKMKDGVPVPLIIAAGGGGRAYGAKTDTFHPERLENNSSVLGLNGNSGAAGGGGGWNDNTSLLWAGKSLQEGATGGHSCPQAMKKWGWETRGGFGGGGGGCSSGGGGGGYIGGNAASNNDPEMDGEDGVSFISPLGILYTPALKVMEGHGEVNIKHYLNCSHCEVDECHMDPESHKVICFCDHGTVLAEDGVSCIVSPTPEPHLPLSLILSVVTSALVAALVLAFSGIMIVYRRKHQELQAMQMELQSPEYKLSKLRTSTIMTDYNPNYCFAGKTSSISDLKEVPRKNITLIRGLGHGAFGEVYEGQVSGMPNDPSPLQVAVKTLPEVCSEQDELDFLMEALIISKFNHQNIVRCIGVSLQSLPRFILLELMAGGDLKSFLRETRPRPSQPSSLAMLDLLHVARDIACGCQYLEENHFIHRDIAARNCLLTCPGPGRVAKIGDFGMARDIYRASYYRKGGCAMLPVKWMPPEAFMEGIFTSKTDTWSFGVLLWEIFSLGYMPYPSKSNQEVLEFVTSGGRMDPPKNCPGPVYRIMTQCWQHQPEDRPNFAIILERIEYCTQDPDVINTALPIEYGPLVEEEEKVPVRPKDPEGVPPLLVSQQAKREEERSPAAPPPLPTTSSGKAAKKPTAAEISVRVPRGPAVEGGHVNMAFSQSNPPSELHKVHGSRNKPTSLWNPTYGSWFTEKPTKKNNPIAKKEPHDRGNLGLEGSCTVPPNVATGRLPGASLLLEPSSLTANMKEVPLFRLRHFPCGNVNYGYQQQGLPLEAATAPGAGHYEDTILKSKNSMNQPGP
For data set [5] the target is unchanged. As to the kind of experiment: Inhibition of ALK in human NCI-H3122 cells assessed as decrease in ERK phosphorylation after 1 hr by Western blot method. Format: cell-based.
Target sequence in this assay (Q9UM73 19-1620 limits assumed): as above
The test system of data set [6] is KARPAS-299. Nature of the data set: Antitumor activity against human KARPAS299 cells xenografted in nude mouse assessed as tumor regression at 10 to 50 mg/kg, po qd administered for 14 days measured post last dose. Format: functional, organism-based.
Data set [7] concerns the target T1, ALK tyrosine kinase receptor. Nature of the data set: Inhibition of ALK in human NCI-H3122 cells assessed as decrease in STAT3 phosphorylation after 1 hr by Western blot method. Format: cell-based. On the technique in general: Immunoblotting shows a protein as a band on a membrane.
Target sequence in this assay (Q9UM73 19-1620 limits assumed): as above
For data set [8] the target is unchanged. As to the kind of experiment: Inhibition of ALK phosphorylation in human NCI-H3122 cells after 1 hr by Western blot method. The data set is classed as cell-based.
Target sequence in this assay (Q9UM73 19-1620 limits assumed): as above
A short description of data set [9]: Antiproliferative activity against ALK constitutively activated human SU-DHL1 cells after 72 hrs by SRB or CCK8 assay. The conditions noted are these: SU-DHL-1, 72 h.
A short description of data set [10]: Antiproliferative activity against ALK constitutively activated human NCI-H3122 cells after 72 hrs by SRB or CCK8 assay. The conditions noted are these: NCI-H3122, 72 h.
Data set [11] can be described thus: Antiproliferative activity against ALK constitutively activated human KARPAS299 cells after 72 hrs by SRB or CCK8 assay. The conditions noted are these: KARPAS-299, 72 h.
Data set [12] is described as follows: Antitumor activity against human KARPAS299 cells xenografted in nude mouse assessed as tumor growth inhibition at 50 mg/kg, po qd administered for 14 days measured twice per week during compound dosing relative to vehicle-treated control. Format: functional. The conditions noted are these: KARPAS-299, po, 336 h, read-out: TGI.
Data set [13] concerns the target Voltage-gated inwardly rectifying potassium channel KCNH2 (Homo sapiens, UniProt Q12809). Nature of the data set: Inhibition of human ERG.
Data set [14] is described as follows: Antitumor activity against human KARPAS299 cells xenografted in nude mouse assessed as tumor growth inhibition at 20 mg/kg, po qd administered for 14 days measured twice per week during compound dosing relative to vehicle-treated control. Format: functional. The conditions noted are these: KARPAS-299, po, 336 h, read-out: TGI.
The nature of data set [15]: Antitumor activity against human KARPAS299 cells xenografted in nude mouse assessed as tumor growth inhibition at 10 mg/kg, po qd administered for 14 days measured twice per week during compound dosing relative to vehicle-treated control. The data set is classed as functional. The conditions noted are these: KARPAS-299, po, 336 h, read-out: TGI.
In data set [16] the test system is Mus musculus. As to the kind of experiment: Toxicity in nude mouse xenografted with human KARPAS299 cells assessed as body weight loss at 10 to 50 mg/kg, po qd administered for 14 days. Format: organism-based, KARPAS-299. The conditions noted are these: in vivo, 336 h.
Data set [17] in a line: Clearance in Sprague-Dawley rat at 5 mg/kg, iv. The data set is classed as ADME, organism-based. The conditions noted are these: in vivo.
The target of data set [18] is ALK tyrosine kinase receptor (Homo sapiens, UniProt Q9UM73, L1196M). As to the kind of experiment: Inhibition of recombinant ALK L1196M mutant (unknown origin) using poly (Glu,Tyr)4:1 as substrate after 60 mins by ELISA.
Data set [19] addresses Epidermal growth factor receptor (Homo sapiens, UniProt P00533). Nature of the data set: Inhibition of recombinant EGFR (unknown origin) using poly (Glu,Tyr)4:1 as substrate after 60 mins by ELISA.
In data set [20] the target is Ephrin type-A receptor 2 (Homo sapiens, UniProt P29317). As to the kind of experiment: Inhibition of recombinant EPHA2 (unknown origin) using poly (Glu,Tyr)4:1 as substrate after 60 mins by ELISA.
The nature of data set [21]: Volume of distribution in Sprague-Dawley rat at 5 mg/kg, iv. The data set is classed as ADME, organism-based. The conditions noted are these: in vivo.
In data set [22] the target is Vascular endothelial growth factor receptor 2 (Homo sapiens, UniProt P35968). Nature of the data set: Inhibition of recombinant KDR (unknown origin) using poly (Glu,Tyr)4:1 as substrate after 60 mins by ELISA.
The nature of data set [23]: Cmax in Sprague-Dawley rat at 10 mg/kg, po. Also on record: dose 10 mg/kg, route oral. Format: ADME, organism-based. The conditions noted are these: in vivo.
Data set [24] addresses Tyrosine-protein kinase ABL1 (Homo sapiens, UniProt P00519). As to the kind of experiment: Inhibition of recombinant ABL (unknown origin) using poly (Glu,Tyr)4:1 as substrate after 60 mins by ELISA.
Data set [25] can be described thus: AUC (0 to infinity) in Sprague-Dawley rat at 10 mg/kg, po. The data set is classed as ADME, organism-based. Also on record: dose 10 mg/kg, time infinity, route oral. The conditions noted are these: in vivo.
Data set [26] in a line: Half life in Sprague-Dawley rat at 5 mg/kg, iv. The conditions noted are these: in vivo. Format: ADME, organism-based.
Data set [27] in a line: Oral bioavailability in Sprague-Dawley rat at 10 mg/kg. The conditions noted are these: in vivo. Format: ADME, organism-based.
Data set [28] deals with Insulin-like growth factor 1 receptor (Homo sapiens, UniProt P08069). As to the kind of experiment: Inhibition of recombinant IGF1R (unknown origin) using poly (Glu,Tyr)4:1 as substrate after 60 mins by ELISA.
Data set [29] concerns the target Platelet-derived growth factor receptor alpha (Homo sapiens, UniProt P16234). Nature of the data set: Inhibition of recombinant PDGFR-alpha (unknown origin) using poly (Glu,Tyr)4:1 as substrate after 60 mins by ELISA.
Data set [30] is described as follows: Tmax in Sprague-Dawley rat at 10 mg/kg, po. Format: ADME, organism-based. The conditions noted are these: in vivo.
Data set [31] deals with Proto-oncogene tyrosine-protein kinase Src (Homo sapiens, UniProt P12931). As to the kind of experiment: Inhibition of recombinant c-Src (unknown origin) using poly (Glu,Tyr)4:1 as substrate after 60 mins by ELISA.
The target in data set [32] is Receptor tyrosine-protein kinase erbB-4 (Homo sapiens, UniProt Q15303). As to the kind of experiment: Inhibition of recombinant ErbB4 (unknown origin) using poly (Glu,Tyr)4:1 as substrate after 60 mins by ELISA.
Data set [33] deals with Receptor tyrosine-protein kinase erbB-2 (Homo sapiens, UniProt P04626). As to the kind of experiment: Inhibition of recombinant ErbB2 (unknown origin) using poly (Glu,Tyr)4:1 as substrate after 60 mins by ELISA.
For data set [34], the target named is Platelet-derived growth factor receptor beta (Homo sapiens, UniProt P09619). Nature of the data set: Inhibition of recombinant PDGFR-beta (unknown origin) using poly (Glu,Tyr)4:1 as substrate after 60 mins by ELISA.
In data set [35] the target is Mast/stem cell growth factor receptor Kit (Homo sapiens, UniProt P10721). Nature of the data set: Inhibition of recombinant c-Kit (unknown origin) using poly (Glu,Tyr)4:1 as substrate after 60 mins by ELISA.
Data set [36] in a line: AUC (0 to infinity) in Sprague-Dawley rat at 5 mg/kg, iv. The data set is classed as ADME, organism-based. Also on record: dose 5 mg/kg, time infinity, route intravenous. The conditions noted are these: in vivo.
Data set [37] is described as follows: Antiproliferative activity against ALK constitutively activated human NCI-H3122 cells at 10 nM after 72 hrs by SRB or CCK8 assay relative to control. The data set is classed as functional. The conditions noted are these: NCI-H3122, 72 h.

Sequence of Voltage-gated inwardly rectifying potassium channel KCNH2 (Q12809 whole entry): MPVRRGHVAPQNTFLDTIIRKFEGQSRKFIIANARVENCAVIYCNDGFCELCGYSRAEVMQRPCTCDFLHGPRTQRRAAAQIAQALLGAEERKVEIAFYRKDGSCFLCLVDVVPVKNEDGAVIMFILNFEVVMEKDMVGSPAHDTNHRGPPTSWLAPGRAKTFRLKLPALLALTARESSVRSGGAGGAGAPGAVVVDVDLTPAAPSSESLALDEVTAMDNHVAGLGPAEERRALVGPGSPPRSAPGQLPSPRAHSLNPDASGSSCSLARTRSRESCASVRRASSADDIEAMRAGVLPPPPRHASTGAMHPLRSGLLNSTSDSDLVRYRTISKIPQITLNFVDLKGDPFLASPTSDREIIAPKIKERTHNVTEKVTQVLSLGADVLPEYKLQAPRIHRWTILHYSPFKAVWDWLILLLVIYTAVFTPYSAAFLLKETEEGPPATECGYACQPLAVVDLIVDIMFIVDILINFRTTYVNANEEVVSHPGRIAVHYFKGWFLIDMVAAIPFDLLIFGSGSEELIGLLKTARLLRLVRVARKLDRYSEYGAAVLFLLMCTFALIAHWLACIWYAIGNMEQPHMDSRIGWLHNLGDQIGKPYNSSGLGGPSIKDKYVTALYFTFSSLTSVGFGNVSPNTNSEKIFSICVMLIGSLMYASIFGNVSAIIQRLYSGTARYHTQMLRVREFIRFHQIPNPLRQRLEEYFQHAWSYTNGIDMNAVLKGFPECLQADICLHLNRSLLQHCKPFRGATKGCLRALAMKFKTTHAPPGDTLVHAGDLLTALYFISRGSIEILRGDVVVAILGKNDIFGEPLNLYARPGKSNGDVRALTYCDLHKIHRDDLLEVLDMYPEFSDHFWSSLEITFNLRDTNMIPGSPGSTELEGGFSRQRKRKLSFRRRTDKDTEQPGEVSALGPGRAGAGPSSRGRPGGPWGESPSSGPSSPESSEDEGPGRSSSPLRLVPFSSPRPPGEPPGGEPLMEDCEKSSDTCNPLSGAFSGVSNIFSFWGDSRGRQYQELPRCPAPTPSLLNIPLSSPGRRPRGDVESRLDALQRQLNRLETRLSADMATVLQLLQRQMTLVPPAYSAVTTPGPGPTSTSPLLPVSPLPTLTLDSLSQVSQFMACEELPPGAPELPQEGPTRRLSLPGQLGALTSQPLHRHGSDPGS
Sequence of ALK tyrosine kinase receptor (Homo sapiens, UniProt Q9UM73, L1196M) (Q9UM73 19-1620 L1196M limits assumed): as the sequence (Q9UM73 19-1620 limits assumed) above, with L1178M counted along it
Sequence of Proto-oncogene tyrosine-protein kinase Src (P12931 2-536 limits assumed): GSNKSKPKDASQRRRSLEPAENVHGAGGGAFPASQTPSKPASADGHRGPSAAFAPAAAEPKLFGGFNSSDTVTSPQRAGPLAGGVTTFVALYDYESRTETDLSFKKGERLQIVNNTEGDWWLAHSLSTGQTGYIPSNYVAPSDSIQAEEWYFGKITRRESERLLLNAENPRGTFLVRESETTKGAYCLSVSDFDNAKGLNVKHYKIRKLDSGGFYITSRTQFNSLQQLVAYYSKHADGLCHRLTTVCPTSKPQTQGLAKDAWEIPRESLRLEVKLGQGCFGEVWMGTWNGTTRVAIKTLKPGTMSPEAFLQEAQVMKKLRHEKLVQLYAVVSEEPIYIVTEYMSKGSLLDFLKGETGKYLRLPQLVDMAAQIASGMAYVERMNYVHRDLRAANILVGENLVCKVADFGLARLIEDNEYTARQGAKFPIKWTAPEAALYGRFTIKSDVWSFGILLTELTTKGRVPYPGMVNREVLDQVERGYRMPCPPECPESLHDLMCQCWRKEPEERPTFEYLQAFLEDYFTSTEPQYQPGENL

For the compound `CCc1cc2c(cc1N1CCN(CC(O)(CCC(=O)O)CC(=O)O)CC1)C(C)(C)c1[nH]c3cc(C#N)ccc3c1C2=O` (stereo not given), the Drug metabolism entry in data set [1] was “Metabolite_Detected”. Further, the IC50 in data set [2] came to 17.1 nM. Besides, at 0.05 µM the inhibition in data set [3] was 3%.

Turning to `CCc1cc2c(cc1N1CCN(CC3(O)CCCCC3)CC1)C(C)(C)c1[nH]c3cc(C#N)ccc3c1C2=O`, in data set [2], the half-maximal inhibitory concentration (IC50) was 7 nM. This compound also had an inhibition at 0.05 µM in [3] of 40%.

In the case of `CCc1cc2c(cc1N1CCN(CC3(O)CCOCC3)CC1)C(C)(C)c1[nH]c3cc(C#N)ccc3c1C2=O` [listing 1 of 2 here], the inhibition result in data set [4], in data set [5], in [7] and in data set [8] was “Dose-dependent effect” in each case. The outcome in data set [6] was Active.

`C[C@@H](Oc1cc(-c2cnn(C3CCNCC3)c2)cnc1N)c1c(Cl)ccc(F)c1Cl` [CRIZOTINIB]: the half-maximal inhibitory concentration (IC50) in [9] turned out to be 92.3 nM; in data set [10] it was 101 nM; in data set [11], 105 nM. In data set [12], the inhibition in vivo at 50 mg/kg worked out at 109%.

As to `CC1(C)c2cc(C3CCN(CC4CCOCC4)CC3)ccc2C(=O)c2c1[nH]c1cc(C#N)ccc21`, the half-maximal inhibitory concentration (IC50) in [13] was determined as 2650 nM.

`CCc1cc2c(cc1N1CCN(CC3(O)CCNCC3)CC1)C(C)(C)c1[nH]c3cc(C#N)ccc3c1C2=O`: the IC50 in data set [2] amounted to 1.4 nM. The inhibition at 0.05 µM in data set [3] is 5%.

`CCc1cc2c(cc1N1CCN(CC3(O)CCOCC3)CC1)C(C)(C)c1[nH]c3cc(C#N)ccc3c1C2=O.Cl`: the inhibition in vivo at 20 mg/kg in data set [14] is more than 100%. Besides, the inhibition in vivo at 50 mg/kg in [12] is 110%. In addition, the inhibition in vivo at 10 mg/kg in data set [15] amounted to 110%. Further, the Activity entry in data set [16] is reported as “Non-Toxic”.

In [17], `CCc1cc2c(cc1N1CCN(CC3(O)CCOCC3)CC1)C(C)(C)c1[nH]c3cc(C#N)ccc3c1C2=O` [listing 2 of 2 here] had a clearance of 12.2 mL/min/kg. Further, the IC50 in [9] was 16.7 nM; in data set [2] it was 1.5 nM; in [18], 4.2 nM; in data set [10] it was 24.4 nM; in data set [19] it was more than 1000 nM; in data set [20], more than 1000 nM. Also, the IC50 was 22.6 nM in [11]; more than 1000 nM in [22]; more than 1000 nM in data set [24]; more than 1000 nM in data set [28]; more than 1000 nM in [29]; more than 1000 nM in data set [31]. The IC50 in [13] is 30000 to 33400 nM; in [32], more than 1000 nM; in [33] it was more than 1000 nM; in [34], more than 1000 nM; in data set [35] it was more than 1000 nM. In [21], this compound gave a volume of distribution (Vd) of 5 L/kg. Moreover, the Cmax in data set [23] was determined as 867 ng/mL. Besides, the AUC(0-inf) in data set [25] came out at 11700 ng·h/mL; in [36], 6640 ng·h/mL. In data set [26], this compound gave a half-life of 5.5 h. Also, in data set [27], the bioavailability was 105%. In data set [30], the Tmax turned out to be 4 h. For the same compound, 0.05 µM produced 80% inhibition in data set [3].

In turn, `CC1(C)c2cc(C3CCN(CC4(O)CCOCC4)CC3)ccc2C(=O)c2c1[nH]c1cc(C#N)ccc21` displayed an IC50 in [13] of more than 12300 nM.

Compound `CCc1cc2c(cc1N1CCN(CC3(O)CC(C)OC(C)C3)CC1)C(C)(C)c1[nH]c3cc(C#N)ccc3c1C2=O` (stereo not given) registered an inhibition at 0.01 µM in data set [37] of 40%. Also, the IC50 in data set [2] worked out at 2.4 nM.

For orientation: IC50 means the concentration at which inhibition is half-maximal. The inhibition is the drop in the measured response relative to a control, in per cent. As a reminder, the clearance is the volume of plasma or blood freed of the substance per unit of time. A high value points to efficient removal. As a reminder, the Vd is a proportionality between amount in the body and measured concentration, not a real space. Low values mean confinement near the circulation, high ones extensive tissue distribution. A word on the Cmax: it is the maximum level reached in the sampled fluid or tissue. As usually defined, the AUC(0-inf) is total exposure, with the tail of the curve extrapolated. As a reminder, the half-life is the time needed for the level to fall by half in the phase considered. Low values mean fast loss, high ones slow loss. A word on the Tmax: it is the time at which the peak concentration occurs.
